# Data taken from the supplement of paper PMC10307832.
# Columns and labels:
# Test in all cases: relative viability (nuclei count vs DMSO), 5 days (fraction); higher = more cells survive
# AZD1208 + Lapatinib = compound: N[C@@H]1CCCN(c2c(/C=C3\SC(=O)NC3=O)cccc2-c2ccccc2)C1 [AZD1208] + CS(=O)(=O)CCNCc1ccc(-c2ccc3ncnc(Nc4ccc(OCc5cccc(F)c5)c(Cl)c4)c3c2)o1 [Lapatinib] (partner 2 µM)
# Procedure, shortened: (§1)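 Relative viability is defined as nuclei in treated wells over nuclei in vehicle wells. Duplicate plates were run and medians reported. Lung cancer cell lines in 1536-well plates were dosed by pin tool one day after seeding, with one drug or with a fixed anchor-drug dose plus five library-drug doses (not always all listed) in √10 steps, and nuclei were counted after 5 days.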
# XMD14-99 + Pemetrexed = compound: CN1CCN(CC1)C2=CC(=C(C=C2)NC3=NC(=C(S3)C(=O)C4=C(C=CC=C4Cl)Cl)N)OC [XMD14-99] + Nc1nc2[nH]cc(CCc3ccc(C(=O)N[C@@H](CCC(=O)O)C(=O)O)cc3)c2c(=O)[nH]1 [Pemetrexed] (partner 0.2 µM)
# Procedure, shortened: as §1
# XMD14-99 + Linsitinib = compound: CN1CCN(CC1)C2=CC(=C(C=C2)NC3=NC(=C(S3)C(=O)C4=C(C=CC=C4Cl)Cl)N)OC [XMD14-99] + C[C@]1(O)C[C@@H](c2nc(-c3ccc4ccc(-c5ccccc5)nc4c3)c3c(N)nccn32)C1 [Linsitinib] (partner 1 µM)
# Procedure, shortened: as §1
# XMD14-99 + Dasatinib = compound: CN1CCN(CC1)C2=CC(=C(C=C2)NC3=NC(=C(S3)C(=O)C4=C(C=CC=C4Cl)Cl)N)OC [XMD14-99] + Cc1nc(Nc2ncc(C(=O)Nc3c(C)cccc3Cl)s2)cc(N2CCN(CCO)CC2)n1 [Dasatinib] (partner 0.075 µM)
# Procedure, shortened: as §1
Cell Line,relative viability (AZD1208 + Lapatinib; first compound 0.08 µM),relative viability (AZD1208 + Lapatinib; first compound 0.253 µM),relative viability (AZD1208 + Lapatinib; first compound 0.8 µM),relative viability (AZD1208 + Lapatinib; first compound 2.53 µM),relative viability (AZD1208 + Lapatinib; first compound 8 µM),relative viability (XMD14-99 + Pemetrexed; first compound 0.08 µM),relative viability (XMD14-99 + Pemetrexed; first compound 0.8 µM),relative viability (XMD14-99 + Pemetrexed; first compound 2.53 µM),relative viability (XMD14-99 + Pemetrexed; first compound 8 µM),relative viability (XMD14-99 + Linsitinib; first compound 0.08 µM),relative viability (XMD14-99 + Linsitinib; first compound 0.8 µM),relative viability (XMD14-99 + Linsitinib; first compound 2.53 µM),relative viability (XMD14-99 + Linsitinib; first compound 8 µM),relative viability (XMD14-99 + Dasatinib; first compound 0.08 µM),relative viability (XMD14-99 + Dasatinib; first compound 0.8 µM),relative viability (XMD14-99 + Dasatinib; first compound 2.53 µM),relative viability (XMD14-99 + Dasatinib; first compound 8 µM)
EMC-BAC-2,0.827,0.889,0.783,0.835,0.723,0.437,0.449,0.403,0.368,0.804,0.81,0.775,0.676,0.311,0.334,0.334,0.286
LK-2,0.738,0.616,0.63,0.39,0.447,0.219,0.247,0.258,0.119,0.398,0.369,0.659,0.471,0.279,0.214,0.281,0.204
NCI-H2228,1.03,1.3,0.971,–,0.652,0.324,0.319,0.398,0.257,0.702,0.524,0.476,0.221,0.376,0.451,0.405,0.148
NCI-H322M,0.574,0.568,0.507,0.578,0.56,0.654,0.57,0.606,0.535,0.903,0.959,0.951,0.845,0.275,0.252,0.257,0.248
NCI-H1975,0.916,1.1,0.838,0.893,1.07,0.293,0.307,0.333,0.283,0.872,0.97,0.81,0.663,0.307,0.304,0.312,0.248
NCI-H1944,0.8,0.788,0.708,0.712,0.484,0.595,0.605,0.602,0.481,1.23,1.19,1.12,1.04,0.193,0.239,0.222,0.201
HCC-44,1.01,0.987,1.06,0.999,0.947,0.648,0.65,0.63,0.627,0.719,0.692,0.708,0.61,–,–,–,–
NCI-H1299,0.984,0.938,0.96,1,0.945,–,–,–,–,0.95,0.905,0.908,0.846,–,–,–,–
LCLC-103H,–,–,–,–,–,0.467,0.475,0.426,0.468,0.909,1.13,1,0.973,0.383,0.582,0.472,0.442
ABC-1,1.14,0.904,1.05,1.09,1.06,–,–,–,–,0.906,0.707,0.659,0.642,0.555,0.689,0.483,0.46
NCI-H1650,0.777,0.878,0.735,0.602,0.667,0.387,0.369,0.359,0.321,–,–,–,–,0.335,0.289,0.316,0.2
ChaGo-K-1,–,–,–,–,–,0.257,0.256,0.263,0.233,–,–,–,–,0.564,0.6,0.51,0.483
NCI-H1648,–,–,–,–,–,0.61,0.564,0.554,0.542,–,–,–,–,–,–,–,–
NCI-H727,0.597,0.754,0.755,0.672,0.59,–,–,–,–,0.303,0.284,0.247,0.297,0.322,0.273,0.309,0.23
A549,0.899,0.921,0.859,0.828,0.721,–,–,–,–,0.636,0.599,0.629,0.505,–,–,–,–
NCI-H522,–,–,–,–,–,0.867,1.04,1.14,1.08,–,–,–,–,0.821,0.93,0.83,0.805
NCI-H441,–,–,–,–,–,0.257,0.289,0.235,0.254,0.719,0.52,0.528,0.382,0.537,0.493,0.463,0.504
NCI-H2170,0.263,0.257,0.257,0.265,0.299,0.247,0.266,0.251,0.247,–,–,–,–,0.612,0.62,0.601,0.592
NCI-H1623,–,–,–,–,–,–,–,–,–,–,–,–,–,0.542,0.515,0.516,0.504
SW 900,–,–,–,–,–,0.518,0.476,0.461,0.471,–,–,–,–,0.662,0.784,0.702,0.426
IA-LM,0.766,0.948,0.766,0.621,0.633,–,–,–,–,0.648,0.308,0.286,0.281,–,–,–,–
EBC-1,0.195,0.249,0.193,0.218,0.2,–,–,–,–,0.885,0.77,0.762,0.702,–,–,–,–
